Data reported in patent US6635629B2, “3-nitrogen-6,7-dioxygen steroids and uses related thereto” (Inflazyme Pharmaceuticals Ltd., priority 2000, dated 2003).
Like-named read-outs stand apart in the source and are kept apart here.

Assays:
[1] = test system: rat mast cell line (RBL-2H3); assay: Antigen-induced release of hexosaminidase from a rat mast cell line (RBL-2H3); assay type: cell-based; settings: tested at 0.3, 3, 10 and 30 μM, read-out: Hex IC50
Experimental: The anti-allergic effects of a compound of the present invention was evaluated by measuring its effect on antigen-induced secretion of hexosaminidase from a passively sensitized rat mast cell line. The ability of a test compound to inhibit the release of mast cell granule contents, e.g., histamine and hexosaminidase, is indicative of the anti-allergy and/or anti-asthma activity of the compound. Hexosaminidase is released from the mast cell granule along with histamine and other mediators during antigen challenge. The test is performed as follows.
RBL-2H3 cells are grown in culture and passively sensitized for 1 hour at 37° C. to dinitrophenol (DNP) using anti-human-DNP (IgE). Cells are incubated with test compound for 30 minutes at 37° C. and stimulated with 0.5 μg/ml DNP-HSA (antigen) for 30 minutes. Aliquots of the supernatant are removed and used to measure the amount of hexosaminidase released during challenge with the antigen. […] The effect of each test compound is determined as a percentage of the antigen-induced response (minus background release) obtained in the presence of DMSO alone. These values are used to determine the degrees of inhibition of antigen-induced hexosaminidase release from the cells.

Jurkat clone E6.1 cells = assay: Antigen-induced (anti-CD3 mAb) calcium flux in Jurkat clone E6.1 cells; assay type: cell-based; settings: for Calcium (% inhibition at 20 μM): anti-CD3 mAb 4 μg/mL, Fura 2AM
Excerpt: Elevation of cytoplasmic calcium concentration is a common and crucial event which follows the activation of many types of cell surface receptors. Increases in intracellular calcium that occur following agonist activation of inositol lipid hydrolysis are the results of calcium release from the endoplasmic reticulum and the influx of calcium through the plasma membrane. Increases in cytosolic calcium concentration are involved in many important cellular responses in the inflammatory process including adhesion, motility, gene expression, proliferation, and degranulation. Changes in intracellular calcium centrations can affect both short and long term cellular responses. An assay method to evaluate a test compound's impact on calcium flux is provided as follows.
The resulting supernatants are discarded and each pellet is washed in 10 mL HBSS. Cell suspensions are accumulated and centrifuged for 5 minutes at 900 RPM to form a cell pellet. The resulting supernatant is discarded and the pellet is resuspended in HBSS at 1×10^7 cells/mL. The cell suspension is transferred to a 20 mm petri dish and incubated at 37° C., 5% CO2 for 20 minutes.
One volume of Fura 2AM is mixed to one volume of detergent Pluronic F127. Cells are labeled with 4 μL of probe solution to each mL of cell suspension. The petri dish is wrapped in aluminum foil to protect from light and placed on a plate shaker for 30 minutes at room temperature.
The following steps are done in the laminar flow hood with the fluorescent lights turned off. The petri dish is removed from the shaker and the labeled cell suspension is transferred to a 15 mL conical tube and washed twice with HBSS as above. The cell pellet is resuspended in 12 mL HBSS and left wrapped in foil for 30 minutes at room temperature. The labeled cell suspension is aliquoted (100 μL/well) into a Dynex 96 well white opaque tissue culture plate. […] Selected compounds were tested for dose related activity. Test samples and activator (anti—CD3 mAb at final concentration of 4 μg/mL, PharMingen) are added manually (50 μL), such that the minimum time to acquire the first data point after stimulation is approximately 30 seconds. The calcium influx response to anti-CD3 mAb is measured as an “end point” assay. The entire plate is read in 100 seconds using a kinetic of 1 second per well.
The plate is read before the addition of anti-CD3 to monitor non-specific effect of samples/drugs. Fluorescence emission is measured at 510 nm with excitation alternating between 340 and 380 every second using an excitation/emission filter pair. Data from these dual wavelengths are represented as a ratio of 2 excitations wavelengths. This ratio is independent of intracellular dye and cell concentrations, enabling real comparison between experiments.

[2] = test system: sensitized Brown Norway rats; assay: Ovalbumin-induced accumulation of inflammatory cells in lung lavage fluid of sensitized Brown Norway rats; assay type: in vivo, rat; settings: p.o., corn oil vehicle, relative to control animals
Experimental: The ability of a compound to inhibit the allergen-induced accumulation of inflammatory cells such as eosinophils and neutrophils in the lavage fluid obtained from sensitized animals is indicative of that compound's anti-asthma activity. […] The test is conducted as follows.
Male Brown Norway rats are sensitized to ovalbumin by single intraperitoneal injection of 1 mg ovalbumin adsorbed to 100 mg A(OH)3 (alum) in 1 ml sterile saline (saline control rats receive only sterile saline) on day 1, and allowed to sensitize until day 21. […] Rats are challenged with 0.5% ovalbumin in saline generated using a Devillbis nebulizer for 60 min on day 21.
Forty-eight hrs after challenge, animals are sacrificed with an overdose of intraperitoneally-delivered sodium pentobarbitol and the lungs are lavaged with cold 2×7 ml phosphate buffered saline. The recovered lavage fluid is placed on ice. The bronchoalveolar lavage fluid is centrifuged and the supernatant removed. The pellet is resuspended in phosphate buffered saline at 4° C. Cytospins are prepared and stained for differentiation and enumeration of cell types.
Test compound was administered in 300 μl corn oil (Tables 7 and 8) or water (Table 9), which were used as vehicles. Control animals received 300 μl corn oil or water alone, i.e., no drug. […] A negative value in Table 7, 8, or 9 indicates an exacerbation of the effect over the control animal.

[3] = inhibition of DNP-HSA antigen-induced hexosaminidase release

| Compound | IC50 [1, 3] | Calcium (% inhibition at 20 μM) (Jurkat clone E6.1 cells) | other results |
| --- | --- | --- | --- |
| CCC1(C)CCC2=C1CCC1C2C(O)C(O)C2CC(Nc3ccccc3)CCC21C.Cl (mixture of isomers) [Compound 144] | 6.9 µM | 13.0% |  |
| CCC1(C)CCC2=C1CCC1C2C(O)C(O)C2CC(Nc3cccc(C(F)(F)F)c3)CCC21C.Cl (mixture of isomers) [Compound 145] | 22 µM | −0.2% |  |
| C=C1CCC2C3C(CC[C@]12C)[C@@]1(C)CCC(N)CC1[C@@H](O)[C@@H]3O (some centres unmarked) [Compound 53] |  | −0.8% | IC50 ([1]; Rattus norvegicus, RBL-2H3, inhibition of DNP-HSA antigen-induced hexosaminidase release): 17.6 µM; % inhibition of eosinophils ([2]; 5 mg/kg/day for 4 days): 24%; % inhibition of lymphocytes ([2]; 5 mg/kg/day for 4 days): 13%; % inhibition of neutrophils ([2]; 5 mg/kg/day for 4 days): 57% |
| C=C1CCC2C3C(CC[C@]12C)[C@@]1(C)CCC(N)CC1[C@@H](O)[C@@H]3O (some centres unmarked) [Compound 54] |  | 19.8% | % inhibition of eosinophils ([2]; 1 mg/kg/day for 4 days): −82%; % inhibition of lymphocytes ([2]; 1 mg/kg/day for 4 days): −7%; % inhibition of neutrophils ([2]; 1 mg/kg/day for 4 days): −19% |
| C=C1CCC2C3C(CC[C@]12C)[C@@]1(C)CCC(N)CC1[C@@H](OC)[C@@H]3OC (some centres unmarked) [Compound 80] | 10.7 µM | 7.4% |  |
| CC(F)=C1CCC2C3C(CC[C@]12C)[C@@]1(C)CCC(N)CC1[C@@H](O)[C@@H]3O (some centres unmarked) [Compound 95] | 13.5 µM | 11.2% | % inhibition of eosinophils ([2]; 5 mg/kg/day for 4 days): 14%; % inhibition of lymphocytes ([2]; 5 mg/kg/day for 4 days): 30%; % inhibition of neutrophils ([2]; 5 mg/kg/day for 4 days): 45% |
| C=C1CCC2C3C(O)C(O)C4CC(NCc5ccccc5F)CCC4(C)C3CCC12C.CC(=O)O (centres unmarked) [Compound 101] |  | 16.3% |  |
| C=C1CCC2C3C(O)C(O)C4CC(NCc5cccc(C(F)(F)F)c5)CCC4(C)C3CCC12C.CC(=O)O (centres unmarked) [Compound 102] | 10 µM | 9.5% |  |
| C=C1CCC2C3C(O)C(O)C4CC(NCc5ccccc5OC)CCC4(C)C3CCC12C.CC(=O)O (centres unmarked) [Compound 103] | 11.1 µM | 23.7% |  |
| C=C1CCC2C3C(O)C(O)C4CC(NCc5ccc(OC(F)(F)F)cc5)CCC4(C)C3CCC12C.CC(=O)O (centres unmarked) [Compound 104] | 9.5 µM | 30.3% |  |
| C=C1CCC2C3C(O)C(O)C4CC(NCc5cccc(Oc6ccccc6)c5)CCC4(C)C3CCC12C.CC(=O)O (centres unmarked) [Compound 105] | 22.5 µM | 10.2% |  |
| C=C1CCC2C3C(O)C(O)C4CC(NCc5cccc([N+](=O)[O-])c5)CCC4(C)C3CCC12C (centres unmarked) [Compound 106] | 8.8 µM | 8.1% |  |
| CC=C1CCC2C3C(O)C(O)C4CC(N5CCOCC5)CCC4(C)C3CCC12C.Cl (centres unmarked) [Compound 111] | 9.3 µM | 53.1% |  |
| C/C=C1/CCC2C3C(CC[C@]12C)[C@@]1(C)CCC(NC)CC1[C@@H](O)[C@@H]3O (some centres unmarked) [Compound 113] | 9.8 µM | 45.0% |  |
| CC=C1CCC2C3C(O)C(O)C4CC(NCCC)CCC4(C)C3CCC12C.Cl (centres unmarked) [Compound 114] |  | 37.9% |  |
| CC=C1CCC2C3C(O)C(O)C4CC(NCCCCC)CCC4(C)C3CCC12C.Cl (centres unmarked) [Compound 115] | 11.1 µM | 40.0% |  |
| CC=C1CCC2C3C(O)C(O)C4CC(NC5CCCC5)CCC4(C)C3CCC12C (centres unmarked) [Compound 116] | 9.6 µM |  |  |

| Compound | IC50 [1, 3] | Calcium (% inhibition at 20 μM) (Jurkat clone E6.1 cells) | other results |
| --- | --- | --- | --- |
| CC(=O)O.CC=C1CCC2C3C(O)C(O)C4CC(NC5CCCCC5)CCC4(C)C3CCC12C (centres unmarked) [Compound 117] | 6.6 µM | 42.2% |  |
| CC(=O)O.CC=C1CCC2C3C(O)C(O)C4CC(N5CCCC5)CCC4(C)C3CCC12C (centres unmarked) [Compound 118] | 11 µM | 41.8% |  |
| CC=C1CCC2C3C(O)C(O)C4CC(NCCNCCC)CCC4(C)C3CCC12C.Cl.Cl (centres unmarked) [Compound 119] |  | 54.5% | IC50 (Jurkat clone E6.1 cells; dose response activity examined): ≤ 10 µM |
| CC=C1CCC2C3C(O)C(O)C4CC(NCCN(C)C)CCC4(C)C3CCC12C.Cl.Cl (centres unmarked) [Compound 120] | 9.1 µM | 44.0% |  |
| CC(=O)O.CC=C1CCC2C3C(O)C(O)C4CC(N5CCNCC5)CCC4(C)C3CCC12C (centres unmarked) [Compound 121] | 14.4 µM | 42.4% |  |
| CC=C1CCC2C3C(O)C(O)C4CC(NCCO)CCC4(C)C3CCC12C.Cl (centres unmarked) [Compound 122] | 12.3 µM | 31.4% |  |
| CC=C1CCC2C3C(O)C(O)C4CC(NCCCCCO)CCC4(C)C3CCC12C.Cl (centres unmarked) [Compound 123] | 16.7 µM | 12.8% |  |
| CC=C1CCC2C3C(O)C(O)C4CC(NCCNCCO)CCC4(C)C3CCC12C.Cl.Cl (centres unmarked) [Compound 124] |  | 21.0% | % inhibition of eosinophils ([2]; 1 mg/kg/day for 4 days): −55%; % inhibition of lymphocytes ([2]; 1 mg/kg/day for 4 days): −26%; % inhibition of neutrophils ([2]; 1 mg/kg/day for 4 days): −76% |
| CC=C1CCC2C3C(O)C(O)C4CC(Nc5cccc(C)c5)CCC4(C)C3CCC12C.Cl (centres unmarked) [Compound 125] | 39.4 µM | 5.7% |  |
| CC=C1CCC2C3C(O)C(O)C4CC(Nc5ccc(O)cc5)CCC4(C)C3CCC12C.Cl (centres unmarked) [Compound 126] | 9.7 µM | 45.0% |  |
| CC=C1CCC2C3C(O)C(O)C4CC(Nc5ccc(S(N)(=O)=O)cc5)CCC4(C)C3CCC12C.Cl (centres unmarked) [Compound 127] | 10.1 µM | 29.4% |  |
| C=C1CCC2C3C(CC[C@]12C)[C@@]1(C)CC[C@@H](NC(C)=O)CC1[C@@H](O)[C@@H]3O (some centres unmarked) [Compound 131] |  |  | % inhibition of eosinophils ([2]; 1 mg/kg/day for 4 days): 16%; % inhibition of lymphocytes ([2]; 1 mg/kg/day for 4 days): 21%; % inhibition of neutrophils ([2]; 1 mg/kg/day for 4 days): 57% |
| C=C1CCC2C3C(CC[C@]12C)[C@@]1(C)CC[C@@H](NC(=O)c2ccccc2)CC1[C@@H](O)[C@@H]3O (some centres unmarked) [Compound 132] | 10 µM | 19.6% |  |
| C=C1CCC2C3C(CC[C@]12C)[C@@]1(C)CC[C@@H](NS(=O)(=O)C(C)C)CC1[C@@H](O)[C@@H]3O (some centres unmarked) [Compound 133] |  |  | % inhibition of eosinophils ([2]; 1 mg/kg/day for 4 days): −43%; % inhibition of lymphocytes ([2]; 1 mg/kg/day for 4 days): 28%; % inhibition of neutrophils ([2]; 1 mg/kg/day for 4 days): 40% |
| C=C1CCC2C3C(CC[C@]12C)[C@@]1(C)CC[C@@H](NS(=O)(=O)c2ccccc2)CC1[C@@H](O)[C@@H]3O (some centres unmarked) [Compound 134] | 16.7 µM | 25.1% |  |
| Cc1cccc(CNC2CCC3(C)C(C2)C(O)C(O)C2C4=C(CCC23)C(C)(C)CC4)c1.Cl (centres unmarked) [Compound 140] | 10.2 µM | 21.5% |  |
| COC1C(OC)C2CC(N)CCC2(C)C2CCC3=C(CCC3(C)C)C12.Cl (centres unmarked) [Compound 148] | 29.2 µM | 6.6% |  |
